Experimental data published in patent US20260041744A1, “Methods for Treating Pompe Disease” (Amicus Therapeutics, Inc., priority 2022, published 2026).
“Also recorded” adds a separate entry of the source.

How the values were obtained:
[1] = test system: Gaa KO mice; assay: Muscle biomarkers LAMP1, LC3, dysferlin in Gaa KO mice (staining, western blot); type: in vivo, mouse
Method: The therapeutic effects of ATB200 and miglustat were evaluated and compared against those of Alglucosidase alfa in Gaa KO mice. For the study, male Gaa KO (3-to 4-month old) and age-matched wild-type (WT) mice were used. Alglucosidase alfa was administered via bolus tail vein intravenous (IV) injection. In the co-administration regimen, miglustat was administered via oral gavage (PO) 30 minutes prior to the IV injection of ATB200. Treatment was given biweekly. Treated mice were sacrificed after 14 days from the last administration and various tissues were collected for further analysis. Table 11 summarizes the study design:
Tissue samples were also analyzed for biomarker changes following the methods discussed in: Khanna R, et al. (2012), “The pharmacological chaperone AT2220 increases recombinant human acid α-glucosidase uptake and glycogen reduction in a mouse model of Pompe disease,” Plos One 7(7): e40776; and Khanna, R et al. (2014), “The Pharmacological Chaperone AT2220 Increases the Specific Activity and Lysosomal Delivery of Mutant Acid a-Glucosidase, and Promotes Glycogen Reduction in a Transgenic Mouse Model of Pompe Disease,” PLOS ONE 9(7): e102092.
Similarly, intense LC3-positive aggregates in the muscle fibers of untreated Gaa KO mice signify the presence of autophagic zones and autophagy build-up. […] A similar observation was made when the expression of LC3 was assessed using western blot. […] In comparison, the effect of alglucosidase alfa on autophagy was modest.
Dysferlin, a protein involved in membrane repair and whose deficiency/mistrafficking is associated with a number of muscular dystrophies, was also assessed.

[2] = test system: adult subjects with LOPD; assay: Study ATB200-07 (OLE): PROMIS-Physical Function; type: in vivo, human
From the text: (§3) Analysis populations presented in this summary are 1) the OLE-ES Population (all subjects who satisfied the eligibility requirements (based on the inclusion and exclusion criteria) and entered Study ATB200-07 and 2) the OLE-FAS Population (all subjects who entered the OLE Study ATB200-07 who had both a valid ATB200-07 baseline and at least 1 post-baseline assessment for at least 1 of the 6 main efficacy endpoints [6MWD, sitting % predicted FVC, MMT-lower extremities, PROMIS-Physical Function, PROMIS-Fatigue, and GSGC]).

[3] = test system: adult subjects with Pompe disease; assay: Pooled Studies ATB200-02/03/07 (Pool 2): sitting % predicted FVC by exposure interval
Method: The pooled efficacy analyses presented within this section include the outlier (Pool 2). […] Pooled efficacy analyses excluding the outlier subject (Pool 2A) were also performed.
No long-term data for the alglucosidase alfa/placebo group are available, as all subjects switched to cipaglucosidase alfa/miglustat in Study ATB200-07.
Efficacy data from the 3 adult Pompe disease clinical studies were pooled and analyzed to further support the long-term efficacy of cipaglucosidase alfa/miglustat in adult subjects. Data from non-ambulatory subjects (Study ATB200-02 Cohort 2) were not included in the pool as there was little overlap of efficacy endpoints for this group with the various ambulatory groups, such as 6MWD and lower MMT.
The 3 adult Pompe disease clinical studies were pooled as follows: • The cipaglucosidase alfa/miglustat treatment group consists of: • All ambulatory subjects in Study ATB200-02 (Cohorts 1, 3, and 4), • All subjects randomized to the cipaglucosidase alfa/miglustat treatment group in Study ATB200-03, and • All subjects enrolled in Study ATB200-07. • The alglucosidase alfa/placebo treatment group consists of: • All subjects randomized to the ERT treatment group in Study ATB200-03.

[4] = test system: adult subjects with LOPD; assay: Study ATB200-07 (OLE): MMT lower extremity
From the text: as §3

[5] = test system: adult subjects with LOPD; assay: Study ATB200-07 (OLE): sitting % predicted FVC; type: in vivo, human
From the text: (§1) The study doses and schedule are maintained from Study ATB200-03.
(§2) Efficacy data are presented in this summary as change from the baseline of Study ATB200-03 (OLE-ES Population).

[6] = test system: adult subjects with late-onset Pompe disease (LOPD); assay: Study ATB200-03 (PROPEL): urinary hexose tetrasaccharide (Hex4/Glc4); type: in vivo, human; details: for urinary Hex4 reduction vs alglucosidase alfa: week 52
[7] = test system: adult subjects with LOPD; assay: Study ATB200-07 (OLE of PROPEL): 6MWD and % predicted 6MWD; type: in vivo, human
From the text: as §1, §2

[8] = test system: adult subjects with LOPD; assay: Study ATB200-07 (OLE): CK
Method: The Phase III double-blind PROPEL study (NCT03729362; ATB200-03) described in Examples 9 and 10 above compared the investigational two-component therapy cipaglucosidase alfa/miglustat (cipa/mig) with alglucosidase alfa/placebo (alglu) in adults with late-onset Pompe disease (LOPD) over 52 weeks. The ongoing open-label extension (OLE) of PROPEL (NCT04138277; ATB200-07) evaluates long-term safety and efficacy of cipa/mig. Outcomes include 6 minute walk distance (6MWD), forced vital capacity (FVC), creatine kinase (CK) and hexose tetrasaccharide (Hex4) levels and safety. Data are reported as change from the PROPEL baseline to OLE week 52 (104 weeks after the PROPEL baseline).

[9] = test system: adult subjects with late-onset Pompe disease (LOPD); assay: Study ATB200-03: global test and responder analyses on 6MWD, FVC, MMT; type: in vivo, human
From the text: To support the interpretation of clinical benefit, a composite subject-level response was defined based on the totality of the treatment outcome data. Subjects were classified by an ordinal response variable consisting of significant improvement, moderate improvement, or minor/no improvement based on treatment outcomes.
Thresholds for clinically relevant changes for 6MWD and FVC in Pompe specifically are not well established, however a large body of data exists from other neuromuscular and chronic respiratory diseases, especially interstitial pulmonary fibrosis (IPF). […] Accordingly, these thresholds were applied to analyses of Study ATB200-03 data.
Additional post hoc patient-level analyses were conducted using these thresholds for 6MWD (±6%) and FVC (±3%) separately and combined.

[10] = Study ATB200-03 baseline, OLE-ES Population excluding Subject 4005-2511
[11] = change from ATB200-03 baseline at Week 52, OLE-ES excluding Subject 4005-2511
[12] = change from ATB200-03 baseline at Week 104, alglucosidase alfa/placebo group switched to cipaglucosidase alfa/miglustat at Week 52, OLE-ES excluding Subject 4005-2511
[13] = exposure interval >15 to ≤24 months, Pool 2, including the outlier
[14] = exposure interval >24 months, Pool 2, including the outlier
[15] = exposure interval ≤15 months, Pool 2, including the outlier
[16] = OLE-ES Population, continued cipaglucosidase alfa/miglustat
[17] = Excluding Subject 4005-2511, change from baseline to Week 52, 2-sided p 0.010
[18] = ITT Population, change from baseline to Week 52, 2-sided p 0.022

ATB200/miglustat: two-component therapy: cipaglucosidase alfa (ATB200) administered in conjunction with miglustat (AT2221), a stabilizer of cipaglucosidase alfa
LC3 II level / autophagy, western blot ([1]; mouse, in vivo): significant decrease in levels of LC3 II
LAMP1-positive vesicles in muscle fibers ([1]; vastus lateralis): led to more fibers with normalized LAMP1 level
LC3-positive aggregates in muscle fibers ([1]; vs alglucosidase alfa): preferentially reduced
dysferlin localisation in muscle fibers ([1]; vs alglucosidase alfa): able to restore dysferlin to the sarcolemma in a greater number of muscle fibers
PROMIS-Physical Function, mean BSL [2, 10]: 67.0
PROMIS-Physical Function, mean 52-wk CFB [2, 11]: 2.2
PROMIS-Physical Function, mean 104-wk CFB [2, 12]: 2.3
mean (SD) change from baseline in % predicted FVC ([3]; exposure >15 to ≤24 months (n=97)): -0.88 (7.103)
mean (SD) change from baseline in % predicted FVC ([3]; exposure >24 months (n=68)): −2.55 (8.393)
Sitting % Predicted FVC Baseline, Mean [3, 13]: 66.89 % predicted
Sitting % Predicted FVC Baseline, Median [3, 13]: 67.50 % predicted
sitting % predicted FVC change from baseline, mean [3, 13]: −0.88 % predicted
sitting % predicted FVC change from baseline, median [3, 13]: −1.00 % predicted
Sitting % Predicted FVC Baseline, Mean [3, 14]: 67.15 % predicted
Sitting % Predicted FVC Baseline, Median [3, 14]: 69.00 % predicted
sitting % predicted FVC change from baseline, mean [3, 14]: −2.55 % predicted
sitting % predicted FVC change from baseline, median [3, 14]: −2.25 % predicted
Sitting % Predicted FVC Baseline, Mean ([3]; exposure interval ≤15 months, Pool 2, Efficacy Population including the outlier): 67.51 % predicted
Sitting % Predicted FVC Baseline, Median [3, 15]: 68.00 % predicted
sitting % predicted FVC change from baseline, median [3, 15]: −1.00 % predicted
sitting % predicted FVC change from baseline, mean ([3]; exposure interval ≤15 months, last available post-baseline value − baseline, Pool 2, including the outlier): −0.74 % predicted
mean (SD) change from baseline in % predicted FVC ([3]; exposure ≤15 months (n=139)): -0.74 (6.121)
MMT (lower extremity score), mean BSL [4, 10]: 27.9
MMT (lower extremity score), mean 52-wk CFB [4, 11]: 1.6
MMT (lower extremity score), mean 104-wk CFB [4, 12]: 1.8
other main endpoints (MMT lower extremity, PROMIS-Physical Function, PROMIS-Fatigue, GSGC) course to Week 104 ([4]; treated through Studies ATB200-03 and ATB200-07): either improved or remained stable through Study ATB200-03, and then stabilized through Study ATB200-07
sitting % predicted FVC course to Week 104 [5, 16]: showed a slight decline from baseline through Study ATB200-03, then stabilized through Week 104
Sitting FVC, mean BSL [5, 10]: 70.7 % predicted
Sitting FVC, mean 52-wk CFB [5, 11]: −1.1 % predicted
Sitting FVC, mean 104-wk CFB [5, 12]: −1.6 % predicted
mean change in urine Hex-4 after 52 weeks ([6]; combined ERT switch and ERT naïve population): −31.5%
urinary Hex4 reduction vs alglucosidase alfa [6]: reductions in CK and urinary Hex4 were significantly greater with ATB200/miglustat treatment at week 52
urinary Hex4 reduction vs alglucosidase alfa ([6]; listed as AT-GAA): significantly favored AT-GAA compared to alglucosidase alfa
urinary Hex4 reduction vs alglucosidase alfa ([6]; listed as cipaglucosidase alfa/miglustat): reductions in biomarkers of muscle damage (CK) and disease substrate (Hex4) also were significantly greater with cipaglucosidase alfa/miglustat compared with alglucosidase alfa
6MWD course to Week 104 [7, 16]: showed an improvement through Study ATB200-03, which was then maintained through Week 104
6MWD, mean BSL [7, 10]: 354.9 m
6MWD, mean 52-wk CFB ([7]; change from ATB200-03 baseline at Week 52 (= ATB200-07 baseline), OLE-ES excluding Subject 4005-2511): 20.6 m
6MWD, mean 104-wk CFB [7, 12]: 20.2 m
CK course to Week 104 ([8]; OLE-ES Population, listed as cipaglucosidase alfa/miglustat): CK and Hex4 declined substantially through Study ATB200-03, then stabilized through Study ATB200-07; also recorded: declined substantially after subjects switched to cipaglucosidase alfa/miglustat through Week 104
CK, mean BSL [8, 10]: 440.6
CK, mean 52-wk CFB [8, 11]: −129.1
CK, mean 104-wk CFB [8, 12]: −154.9
Wilcoxon rank sum test on sum of ranks for 6MWD and % predicted FVC: Mean Score [9, 17]: 66.5
Wilcoxon rank sum test on sum of ranks for 6MWD and % predicted FVC: Sum of Scores [9, 17]: 5587.5
Wilcoxon rank sum test on sum of ranks for 6MWD and FVC: Mean Score [9, 18]: 66.5
Wilcoxon rank sum test on sum of ranks for 6MWD and FVC: Sum of Scores [9, 18]: 5587.5
post hoc global test on 6MWD and % predicted FVC ([9]; Wilcoxon rank-sum on summed ranks, listed as cipaglucosidase alfa/miglustat): greater improvement in either 6MWD or FVC; also recorded: greater improvement in subjects treated with cipaglucosidase alfa/miglustat versus alglucosidase alfa/placebo
patient-level responder analyses 6MWD, FVC, MMT ([9]; thresholds ±6%, ±3%, ±7%, overall population, listed as cipaglucosidase alfa/miglustat): a greater proportion of subjects in the overall population treated with cipaglucosidase alfa/miglustat demonstrated clinically meaningful improvement and a smaller proportion demonstrated clinically meaningful worsening across these 3 endpoints; also recorded: significantly greater proportion of subjects with improvement on both domains
